Counter-ions that a name gives are not always drawn.
Key:
human factor XIa = biological target: T1, human factor XIa (Homo sapiens, UniProt P03951); assay: Measurement of FXIa inhibition (fluorogenic peptide substrate Boc-Glu(OBzl)-Ala-Arg-AMC); format: biochemical; details: factor XIa from Kordia 0.45 nM, 15 min pre-incubation, 30 min at 22° C., fluorescence
T1 construct: purchased Kordia

human and animal plasma = assay: Determination of anticoagulatory activity: activated partial thromboplastin time (aPTT) in plasma; details: concentration of test substance which brings about a 1.5-fold extension of the aPTT; plasma in vitro, C.K. Prest kit
Method in brief: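 Citrated plasma (human, mouse, rat, rabbit, pig, dog) incubated with varying compound concentrations and cephalin/kaolin PTT reagent for 3 minutes at 37° C.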

T1 sequence (P03951 388-625 limits assumed): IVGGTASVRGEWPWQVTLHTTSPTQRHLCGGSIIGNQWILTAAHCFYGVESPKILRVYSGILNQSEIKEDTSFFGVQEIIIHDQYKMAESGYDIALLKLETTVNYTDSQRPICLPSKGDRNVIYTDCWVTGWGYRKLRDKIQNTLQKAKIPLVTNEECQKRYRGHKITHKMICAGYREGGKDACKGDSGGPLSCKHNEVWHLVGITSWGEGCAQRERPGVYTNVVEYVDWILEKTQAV
T1 sequence (P03951 19-387 partner limits assumed): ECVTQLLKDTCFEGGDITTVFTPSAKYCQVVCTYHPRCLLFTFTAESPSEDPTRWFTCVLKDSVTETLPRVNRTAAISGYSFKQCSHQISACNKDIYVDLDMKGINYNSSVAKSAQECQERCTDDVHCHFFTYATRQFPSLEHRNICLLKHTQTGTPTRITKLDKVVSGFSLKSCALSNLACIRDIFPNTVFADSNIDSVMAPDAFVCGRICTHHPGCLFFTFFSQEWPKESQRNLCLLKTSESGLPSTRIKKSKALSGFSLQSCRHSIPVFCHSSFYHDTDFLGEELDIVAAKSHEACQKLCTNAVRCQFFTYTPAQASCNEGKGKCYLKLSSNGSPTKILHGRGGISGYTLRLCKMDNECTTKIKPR

Compound	IC50 (human factor XIa) [nM]	aPTT (human and animal plasma) [µmol/L]
NC[C@H]1CC[C@H](C(=O)N[C@@H](Cc2cccc(-c3cncc(S(=O)(=O)NC4CCNCC4)c3)c2)C(=O)Nc2ccc(-c3nnc(Cl)[nH]3)cc2)CC1 [Example 106, N-alpha-{[trans-4-(Aminomethyl)cyclohexyl]carbonyl}-N-[4-(3-chloro-4H-1,2,4-triazol-5-yl)phenyl]-3-[5-(piperidin-4-ylsulphamoyl)pyridin-3-yl]-L-phenylalaninamide hydrochloride]	5.7	0.13
NC[C@H]1CC[C@H](C(=O)N[C@@H](Cc2cccc(-c3cnccc3Cl)c2)C(=O)Nc2ccc(-c3noc(=O)[nH]3)cc2)CC1 [Example 107, N-alpha-{[trans-4-(Aminomethyl)cyclohexyl]carbonyl}-3-(4-chloropyridin-3-yl)-N-[4-(5-oxo-4,5-dihydro-1,2,4-oxadiazol-3-yl)phenyl]-L-phenylalaninamide hydrochloride]	6.2	0.7
CN(C)CCCOc1ccc(-c2cccc(C[C@H](NC(=O)[C@H]3CC[C@H](CN)CC3)C(=O)Nc3ccc(-c4nc(C(F)(F)C(F)(F)C(F)(F)C(=O)O)n[nH]4)cc3)c2)cn1 [Example 108, 4-(5-{4-[(N-{[trans-4-(Aminomethyl)cyclohexyl]carbonyl}-3-{6-[3-(dimethylamino)propoxy]pyridin-3-yl}-L-phenylalanyl)amino]phenyl}-1H-1,2,4-triazol-3-yl)-2,2,3,3,4,4-hexafluorobutanoic acid hydrochloride]	5.5	0.25
CN(C)CCCOc1ccc(-c2cccc(C[C@H](NC(=O)[C@H]3CC[C@H](CN)CC3)C(=O)Nc3ccc(-c4nc(C(F)(F)C(F)(F)C(=O)O)n[nH]4)cc3)c2)cn1 [Example 109, hydrochloride]	6	0.16

From US20160244437A1, “SUBSTITUTED PHENYLALANINE DERIVATIVES” (BAYER PHARMA AKTIENGESELLSCHAFT, priority 2013, published 2016)
